Data on one substance can be found in patent US20220091128A1, “SYSTEM AND METHOD FOR LIGAND THERMAL ANALYSIS” (Portland State University, priority 2019, published 2022).

Common to all, as to format: binding
One data set addresses biotinylated HSA (HSAB) (Homo sapiens, UniProt P02768). The data set is described as follows: DSC thermograms of biotinylated HSA (HSAB) with ligands. Particulars: HSAB, measured versus calculated composite curves (FIG. 23).
The subject of another data set is human plasma. The data set is described as follows: DSC thermograms of plasma with ligand. The note with it: plasma, measured versus calculated composite curves (FIG. 22).
For the next data set, the target named is HSA (Homo sapiens, UniProt P02768). The data set is described as follows: Capture of DNA from plasma with biotinylated HSA capture reagent, gel electrophoresis. Also noted: purchased Sigma Aldrich (HSA); biotinylated in house (Thermo Fisher Scientific 21217); Pierce streptavidin magnetic beads (Thermo Scientific 88816). The note with it: salt washes. On the procedure: Gel electrophoresis: DNA samples collected at different steps of the capture procedure were analyzed by electrophoresis on polyacrylamide gels. All electrophoresis experiments were performed using Lonza PAGEr™ Gold Precast Gels: Gradient, 10×10 cm, 8-16%, purchased from Thermo-Fisher (BMA59519). Each supernatant fraction collected at different steps of the capture procedure were suspended in TAE running buffer and analyzed. In a typical experiment, 25 μL total volume of solution was loaded per lane (well capacity). Gels were run in TAE buffer (40 mM Tris, 20 mM Acetic Acid, 0.4 mM EDTA) at a constant current of 20 mA for approximately three hours. Gels for analysis of DNA were stained with Stains-all solution, destained in water, removed, visualized and imaged on a flat-bed scanner. Gels for analysis of hot labeled cy5′-25MER DNA were visualized using a Typhoon™ Trio+phosphorimager (GE Healthcare).
Chain of HSA (P02768 25-609): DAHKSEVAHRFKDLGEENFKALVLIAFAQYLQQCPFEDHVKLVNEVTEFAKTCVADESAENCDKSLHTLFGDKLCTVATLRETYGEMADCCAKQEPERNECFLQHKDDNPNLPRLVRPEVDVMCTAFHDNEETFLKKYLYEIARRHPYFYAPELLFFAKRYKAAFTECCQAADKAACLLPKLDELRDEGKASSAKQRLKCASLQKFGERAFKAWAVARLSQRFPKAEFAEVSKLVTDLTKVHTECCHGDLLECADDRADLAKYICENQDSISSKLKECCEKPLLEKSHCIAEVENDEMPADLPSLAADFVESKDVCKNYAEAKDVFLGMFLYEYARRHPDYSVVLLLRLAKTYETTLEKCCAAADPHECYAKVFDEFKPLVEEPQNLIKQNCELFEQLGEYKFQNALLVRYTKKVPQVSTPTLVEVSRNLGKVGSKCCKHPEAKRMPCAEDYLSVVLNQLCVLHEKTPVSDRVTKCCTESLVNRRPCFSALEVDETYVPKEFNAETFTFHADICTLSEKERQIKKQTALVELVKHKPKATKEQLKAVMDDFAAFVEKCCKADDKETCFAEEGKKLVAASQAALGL
Capture strategy: In some examples, biotinylated HSA acts as an affinity reagent for ligands in plasma that bind HSA. In the capture step, streptavidin coated magnetic beads are attached to biotinylated HSA then inserted into plasma. With application of a magnetic field, ligand-bound biotinylated HSA is retrieved. Captured HSA contains bound plasma components (ligands).
Ligand recovery: In the capture process, HSA-bound components are washed off the capture reagent. […]

Chain of biotinylated HSA (HSAB) (P02768 25-609): as above

For “ssDNA: 25-base single strand DNA 25R, 5′-CGACATGACCTTGTCGCTAACATCC-3′ (DNA CGACATGACCTTGTCGCTAACATCC; DNA, backbone and methylation of C not given here)”, the “interaction judged by effect on the thermogram” value in the data set with biotinylated HSA (HSAB) and in the data set with human plasma was “interact very weakly” throughout. For the same substance, in the data set with HSA, the “binding to HSA by gel analysis” value was “detectable, but weak”.
